# Assay results taken from the supplement of paper PMC10307832.
# Compound: COCC[n+]1c2c(n(Cc3cnccn3)c1C)C(=O)c1ccccc1C2=O [YM155] + CCNC(=O)c1noc(-c2cc(C(C)C)c(O)cc2O)c1-c1ccc(CN2CCOCC2)cc1 [Luminespib] (partner 0.01 µM)
# Experiment: relative viability (nuclei count vs DMSO), 5 days (fraction); higher = more cells survive
# Settings: first compound 0.002 µM
# Method in brief: (§1)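 Cells from lung cancer lines were seeded into 1536-well plates and, one day later, dosed by pin tool. Treatments were either a single drug or a fixed dose of an anchor drug with five library-drug doses (not always all listed) in √10 steps. After 5 days, nuclei were stained in a one-step fixation (final 0.05% Triton X-100, 1% formaldehyde, 1 ug/ml Hoechst) and counted on 4× images, and relative viability is the treated-to-vehicle nuclei ratio, as the median of duplicate plates.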
row,Cell Line,relative viability
1,LOU-NH91,0.299
2,NCI-H596,1.06
3,NCI-H1666,1.01
4,NCI-H23,0.209
5,NCI-H838,0.254
6,NCI-H322M,0.814
7,NCI-H1793,0.234
8,NCI-H441,0.327
9,NCI-H727,0.588
10,SW 1573,0.246
11,201T,1.05
12,HCC-44,1.04
13,NCI-H1755,0.519
14,COR-L23,0.562
15,NCI-H2085,0.406
16,NCI-H460,0.0266
17,BEN,0.33
18,PC-3 [JPC-3],0.654
19,LC-2-ad,0.942

# Same assay, conditions: first compound 0.006325 µM
row,Cell Line,relative viability
1,LOU-NH91,0.36
2,NCI-H596,1.02
3,NCI-H1666,1.07
4,NCI-H23,0.206
5,NCI-H838,0.429
6,NCI-H322M,0.949
7,NCI-H1793,0.24
8,NCI-H441,0.394
9,NCI-H727,0.336
10,SW 1573,0.179
11,201T,1.06
12,HCC-44,1.05
13,NCI-H1755,0.445
14,COR-L23,0.378
15,NCI-H2085,0.474
16,NCI-H460,0.0307
17,BEN,0.728
18,PC-3 [JPC-3],0.732
19,LC-2-ad,0.959

# Same assay, conditions: first compound 0.02 µM
row,Cell Line,relative viability
1,LOU-NH91,0.315
2,NCI-H596,0.924
3,NCI-H1666,1.02
4,NCI-H23,0.187
5,NCI-H838,0.234
6,NCI-H322M,0.944
7,NCI-H1793,0.333
8,NCI-H441,0.259
9,NCI-H727,0.307
10,SW 1573,0.17
11,201T,1.04
12,HCC-44,0.92
13,NCI-H1755,0.473
14,COR-L23,0.16
15,NCI-H2085,0.338
16,NCI-H460,0.035
17,BEN,0.617
18,PC-3 [JPC-3],0.673
19,LC-2-ad,0.869

# Same assay, conditions: first compound 0.06325 µM
row,Cell Line,relative viability
1,LOU-NH91,0.375
2,NCI-H596,1.27
3,NCI-H1666,0.852
4,NCI-H23,0.142
5,NCI-H838,0.158
6,NCI-H322M,0.759
7,NCI-H1793,0.189
8,NCI-H441,0.301
9,NCI-H727,0.665
10,SW 1573,0.0748
11,201T,1.09
12,HCC-44,0.219
13,NCI-H1755,0.583
14,COR-L23,0.115
15,NCI-H2085,0.369
16,NCI-H460,0.0204
17,BEN,0.417
18,PC-3 [JPC-3],0.653
19,LC-2-ad,0.331

# Compound: COCC[n+]1c2c(n(Cc3cnccn3)c1C)C(=O)c1ccccc1C2=O [YM155] + C[C@]1(O)C[C@@H](c2nc(-c3ccc4ccc(-c5ccccc5)nc4c3)c3c(N)nccn32)C1 [Linsitinib] (partner 1 µM)
# Experiment: as above
# Settings: first compound 0.002 µM
# Method in brief: as §1
row,Cell Line,relative viability
1,LOU-NH91,1.05
2,NCI-H1666,0.88
3,NCI-H23,0.54
4,NCI-H838,0.935
5,NCI-H322M,0.762
6,NCI-H441,0.461
7,NCI-H727,0.28
8,SW 1573,0.88
9,201T,0.98
10,HCC-44,0.712
11,NCI-H1755,0.972
12,COR-L23,0.846
13,NCI-H2085,0.822
14,NCI-H460,0.778
15,BEN,0.922
16,PC-3 [JPC-3],0.995
17,LC-2-ad,0.806

# Same assay, conditions: first compound 0.006325 µM
row,Cell Line,relative viability
1,LOU-NH91,0.879
2,NCI-H596,1.05
3,NCI-H23,0.595
4,NCI-H838,0.997
5,NCI-H322M,0.929
6,NCI-H1793,0.639
7,NCI-H441,0.486
8,NCI-H727,0.321
9,SW 1573,0.939
10,201T,0.984
11,HCC-44,0.724
12,NCI-H1755,1.03
13,COR-L23,0.857
14,NCI-H2085,0.743
15,NCI-H460,0.936
16,BEN,1.03
17,PC-3 [JPC-3],0.927
18,LC-2-ad,0.957

# Same assay, conditions: first compound 0.02 µM
row,Cell Line,relative viability
1,LOU-NH91,0.97
2,NCI-H596,1.07
3,NCI-H1666,1.01
4,NCI-H23,0.598
5,NCI-H838,1.03
6,NCI-H322M,0.917
7,NCI-H1793,0.886
8,NCI-H441,0.557
9,NCI-H727,0.28
10,SW 1573,0.769
11,201T,1.03
12,HCC-44,0.715
13,NCI-H1755,0.974
14,COR-L23,0.463
15,NCI-H2085,0.852
16,NCI-H460,0.735
17,BEN,0.878
18,PC-3 [JPC-3],0.995
19,LC-2-ad,0.814

# Same assay, conditions: first compound 0.06325 µM
row,Cell Line,relative viability
1,LOU-NH91,0.978
2,NCI-H596,1.07
3,NCI-H1666,0.578
4,NCI-H23,0.295
5,NCI-H838,0.485
6,NCI-H322M,1.01
7,NCI-H1793,0.483
8,NCI-H441,0.353
9,NCI-H727,0.364
10,SW 1573,0.686
11,201T,1.06
12,HCC-44,0.664
13,NCI-H1755,0.976
14,COR-L23,0.174
15,NCI-H2085,0.517
16,NCI-H460,0.517
17,BEN,0.929
18,PC-3 [JPC-3],0.995
19,LC-2-ad,0.753

# Compound: CC(C)(C)c1cc(NC(=O)Nc2ccc(-c3cn4c(n3)sc3cc(OCCN5CCOCC5)ccc34)cc2)no1 [Quizartinib] + Cc1nc(NC(=O)N2CCC[C@H]2C(N)=O)sc1-c1ccnc(C(C)(C)C(F)(F)F)c1 [Alpelisib] (partner 2 µM)
# Experiment: as above
# Settings: first compound 0.001 µM
# Method in brief: as §1
row,Cell Line,relative viability
1,LOU-NH91,0.683
2,NCI-H596,0.521
3,NCI-H1666,0.793
4,NCI-H838,0.876
5,NCI-H322M,0.707
6,NCI-H1793,0.588
7,NCI-H441,0.656
8,NCI-H727,0.482
9,SW 1573,0.779
10,201T,0.759
11,HCC-44,0.798
12,NCI-H1755,0.798
13,COR-L23,0.725
14,NCI-H2085,0.88
15,NCI-H460,0.358
16,BEN,0.919
17,PC-3 [JPC-3],0.953
18,LC-2-ad,0.775

# Same assay, conditions: first compound 0.003162 µM
row,Cell Line,relative viability
1,LOU-NH91,0.724
2,NCI-H596,0.498
3,NCI-H1666,0.956
4,NCI-H23,0.556
5,NCI-H838,0.942
6,NCI-H322M,0.779
7,NCI-H1793,0.875
8,NCI-H441,0.541
9,SW 1573,0.728
10,201T,0.957
11,HCC-44,0.78
12,NCI-H1755,0.851
13,COR-L23,0.708
14,NCI-H2085,0.881
15,NCI-H460,0.458
16,BEN,0.863
17,PC-3 [JPC-3],1.01
18,LC-2-ad,0.837

# Same assay, conditions: first compound 0.01 µM
row,Cell Line,relative viability
1,LOU-NH91,0.761
2,NCI-H596,1.34
3,NCI-H1666,1.03
4,NCI-H23,0.679
5,NCI-H838,0.958
6,NCI-H322M,0.799
7,NCI-H1793,0.788
8,NCI-H441,0.885
9,NCI-H727,0.588
10,SW 1573,0.836
11,201T,0.988
12,HCC-44,0.864
13,NCI-H1755,0.975
14,COR-L23,0.843
15,NCI-H2085,0.997
16,NCI-H460,0.463
17,BEN,1.05
18,PC-3 [JPC-3],1.14
19,LC-2-ad,0.952

# Same assay, conditions: first compound 0.03162 µM
row,Cell Line,relative viability
1,LOU-NH91,0.5
2,NCI-H596,0.407
3,NCI-H1666,0.742
4,NCI-H23,0.645
5,NCI-H838,0.968
6,NCI-H322M,0.758
7,NCI-H1793,0.731
8,NCI-H441,0.733
9,NCI-H727,0.586
10,SW 1573,0.686
11,201T,0.987
12,HCC-44,0.825
13,NCI-H1755,0.917
14,COR-L23,0.61
15,NCI-H2085,0.822
16,BEN,0.795
17,PC-3 [JPC-3],1.02
18,LC-2-ad,0.9

# Same assay, conditions: first compound 0.1 µM
row,Cell Line,relative viability
1,LOU-NH91,0.771
2,NCI-H596,0.396
3,NCI-H1666,1.02
4,NCI-H23,0.687
5,NCI-H838,0.593
6,NCI-H322M,0.787
7,NCI-H1793,0.798
8,NCI-H441,0.779
9,NCI-H727,0.556
10,SW 1573,0.793
11,201T,0.982
12,HCC-44,0.638
13,NCI-H1755,0.923
14,COR-L23,0.759
15,NCI-H2085,0.827
16,NCI-H460,0.406
17,BEN,0.969
18,PC-3 [JPC-3],0.998
19,LC-2-ad,0.592

# Compound: COCC[n+]1c2c(n(Cc3cnccn3)c1C)C(=O)c1ccccc1C2=O [YM155] + CC(=O)Nc1cccc(-n2c(=O)n(C3CC3)c(=O)c3c(Nc4ccc(I)cc4F)n(C)c(=O)c(C)c32)c1 [Trametinib] (partner 0.02 µM)
# Experiment: as above
# Settings: first compound 0.002 µM
# Method in brief: as §1
row,Cell Line,relative viability
1,LOU-NH91,0.8
2,NCI-H596,0.783
3,NCI-H1666,0.865
4,NCI-H838,0.461
5,NCI-H322M,0.55
6,NCI-H1793,0.4
7,NCI-H441,0.383
8,NCI-H727,0.412
9,SW 1573,0.59
10,201T,0.701
11,HCC-44,1.05
12,NCI-H1755,0.764
13,COR-L23,0.629
14,NCI-H2085,0.573
15,NCI-H460,0.081
16,BEN,0.984
17,PC-3 [JPC-3],0.774
18,LC-2-ad,0.928

# Same assay, conditions: first compound 0.006325 µM
row,Cell Line,relative viability
1,LOU-NH91,0.747
2,NCI-H596,0.784
3,NCI-H1666,0.896
4,NCI-H23,0.361
5,NCI-H838,0.505
6,NCI-H322M,0.5
7,NCI-H1793,0.452
8,NCI-H441,0.393
9,NCI-H727,0.396
10,SW 1573,0.453
11,201T,0.72
12,HCC-44,1.08
13,NCI-H1755,0.752
14,COR-L23,0.577
15,NCI-H2085,0.659
16,NCI-H460,0.147
17,BEN,0.864
18,PC-3 [JPC-3],0.666
19,LC-2-ad,0.925

# Same assay, conditions: first compound 0.02 µM
row,Cell Line,relative viability
1,LOU-NH91,0.807
2,NCI-H596,0.744
3,NCI-H1666,0.874
4,NCI-H23,0.498
5,NCI-H838,0.508
6,NCI-H322M,0.48
7,NCI-H1793,0.432
8,NCI-H441,0.461
9,NCI-H727,0.391
10,SW 1573,0.16
11,201T,0.702
12,HCC-44,1.08
13,NCI-H1755,0.751
14,COR-L23,0.566
15,NCI-H2085,0.679
16,NCI-H460,0.174
17,BEN,0.951
18,PC-3 [JPC-3],0.685
19,LC-2-ad,0.866

# Same assay, conditions: first compound 0.06325 µM
row,Cell Line,relative viability
1,LOU-NH91,0.788
2,NCI-H596,0.859
3,NCI-H1666,0.903
4,NCI-H23,0.225
5,NCI-H838,0.372
6,NCI-H322M,0.536
7,NCI-H1793,0.407
8,NCI-H441,0.268
9,NCI-H727,0.411
10,SW 1573,0.0853
11,201T,0.761
12,HCC-44,1.15
13,NCI-H1755,0.755
14,COR-L23,0.192
15,NCI-H2085,0.348
16,NCI-H460,0.14
17,BEN,1.2
18,PC-3 [JPC-3],0.598
19,LC-2-ad,0.87
